These results are taken from patent US20250002954A1, “Novel Compound, Use Thereof, and Method for Producing Same, and Compound-Containing Composition, Method for Producing 4-Trehalosamine, and Microorganism” (Microbial Chemistry Research Foundation, priority 2021, published 2025).

The nature of series [1]: Starch aging inhibiting effect, enzyme assay 3 (potato starch gel). The note with it: final concentration 10% or 15% (w/w), 48 and 96 hours. The procedure:
Starch aging inhibiting effect was determined in a similar manner to the <Enzyme assay 1> except that the “—Preparation of measurement samples—” and “—Determination of starch aging inhibiting effect—” in the <Enzyme assay 1> were changed to the methods below.
The 4-trehalosamine (4TA) obtained in production example 10, and trehalose (TRH), sucrose (SCR), and glycerol (GOL) were each dissolved in water to a final concentration of 10% (w/w) or 15% (w/w), thus preparing aqueous solutions. Into each of the aqueous solutions containing the different sugars or water as control, potato starch (manufactured by Yoshida Pharmaceutical Company Limited) was mixed to a final concentration of 15% (w/w) and suspended uniformly, and the suspension was aliquoted in 33.3 μL volumes to three tubes. […]
Starch aging inhibiting effect was determined in a similar manner to the “—Determination of starch aging inhibiting effect—” of the <Enzyme assay 1> except that measurement of absorbance at 660 nm was changed to measurement of absorbance at 620 nm in the “—Determination of starch aging inhibiting effect—” of the <Enzyme assay 1>, and that quantification (absorbance measurement) of enzyme reaction and sugar was performed for the 0-hour, 48-hour, and 96-hour samples in the quantification (absorbance measurement) of enzyme reaction and sugar. […]

A short description of series [2]: Starch aging inhibiting effect, enzyme assay 4 (rice flour gel). As to conditions: final concentration 10% or 15% (w/w), 48 and 96 hours. As to the method:
Starch aging inhibiting effect was determined in a similar manner to the <Enzyme assay 3> except that potato starch was changed to rice flour (manufactured by OSAWA JAPAN) in the “—Preparation of measurement samples—” of the <Enzyme assay 3>. The results for the 10% (w/w) final concentration of the different sugars are shown in FIG. 15G, and the results for the 15% (w/w) final concentration of the different sugars are shown in FIG. 15H.

The nature of series [3]: Starch aging inhibiting effect, enzyme assay 5 (wheat flour gel). As to conditions: final concentration 10% or 15% (w/w), 48 and 96 hours. As to the method:
Starch aging inhibiting effect was determined in a similar manner to the <Enzyme assay 3> except that potato starch was changed to wheat flour (organic wheat flour, from Kanazawa Daichi) in the “—Preparation of measurement samples—” of the <Enzyme assay 3>. The results for the 10% (w/w) final concentration of the different sugars are shown in FIG. 15I, and the results for the 15% (w/w) final concentration of the different sugars are shown in FIG. 15J.

Series [4] relates to autophagy-related transcription factor EB (TFEB) in OVK18 and Mewo cells. Briefly: Elevated expression and nuclear localization of TFEB (western blotting, immunostaining). In kind it is cell-based, human. The note with it: 50 mM 4-trehalosamine, 100 μM IMCTA-C14 or 100 mM trehalose, 14 hours. The procedure: Elevated expression and nuclear localization of autophagy-related transcription factor EB (TFEB) when human ovarian cancer cells or human malignant melanoma cells were treated with 4-trehalosamine or trehalose analog were determined by western blotting and immunostaining.
Fractionation of nuclear and cytoplasm was performed in the following manner using buffer that was a modification of the buffer according to the report of Dignam et al. (J. D. Dignam et al., Nucleic Acids Res, 1983, 11 (5), p. 1475-1489).
Human ovarian cancer cells OVK18 (obtained from RIKEN BRC) and human malignant melanoma cells Mewo (JCRB0066) were each inoculated on a 6-well plate at 2×10^5 cells/2 mL/well, and cultured in DMEM culture medium at 37° C. for 48 hours. After that, as with test example 10-1, a half of the culture fluid in each well was taken, and each compound was dissolved so that the final concentration is 50 mM 4-trehalosamine, 50 µM IMCTA-C14, 100 μM IMCTA-C14, or 100 mM trehalose. After dissolving it sufficiently, the cells were returned to the original well and treated at 37° C. for 14 hours. Untreated cells without addition of the compounds were used as control. […]
The protein concentration of each fraction was measured with protein quantification reagent (XL-Bradford, integrale) and the amount of expression of TFEB in each fraction was examined by western blotting. […]

Consider `N[C@H]1[C@H](O)[C@@H](O)[C@@H](O[C@H]2O[C@H](CO)[C@@H](O)[C@H](O)[C@H]2O)O[C@@H]1CO` [4-trehalosamine], for which the “rate of degradation by β-amylase (starch aging inhibiting effect)” value in series [1] is “significantly high rate of degradation by β-amylase at and after 48 hours compared to the other gels”; in series [2] it was “significantly high rate of degradation by β-amylase at and after 48 hours compared to the other gels”; in series [3], “significantly high rate of degradation by β-amylase at and after 48 hours compared to the other gels”. Moreover, the “expression and nuclear localization of TFEB” value in series [4] was “elevated expression and nuclear localization of TFEB”.
